Results reported in the NIST ThermoML archive (doi:10.1021/je025641j).
± gives the expanded uncertainty stated by the source.

Experiment: molar enthalpy of vaporization or sublimation
Conditions: 298.15 K; Crystal; Static calorimetry

Compound | molar enthalpy
COc1cccc(OC)c1O [1,3-dimethoxy-2-hydroxybenzene] | 23.5 ± 0.43 kcal/mol
COc1ccc(O)cc1 [4-methoxyphenol] | 22.6 ± 0.43 kcal/mol
COc1cc(O)cc(OC)c1 [3,5-dimethoxyphenol] | 24.2 ± 0.717 kcal/mol

Same assay, conditions: 298.15 K; Liquid; Static calorimetry

Compound | molar enthalpy
COc1cccc(O)c1 [3-methoxyphenol] | 18.1 ± 0.43 kcal/mol
COc1ccccc1O [2-methoxyphenol] | 15 ± 0.263 kcal/mol
COc1cccc(O)c1OC [2,3-dimethoxyphenol] | 18.3 ± 0.406 kcal/mol
